These results are taken from paper PMC6421115 (The Journal of eukaryotic microbiology, 2018).

Counter-ions that a name gives are not always drawn. Like-named read-outs stand apart in the source and are kept apart here. Marks after values point to notes of the source that are not given here. Some results are limits rather than exact numbers.

The term IC50 denotes the concentration that gives 50% inhibition. Usually EC50 stands for the concentration that produces a half-maximal response. By Ki is commonly meant the equilibrium dissociation constant of an inhibitor or competing ligand from its target. By Km is commonly meant the concentration of substrate that gives half-maximal velocity. Broadly, the Vmax is the rate approached at saturating substrate.

The target of series [1] is T1, C. parvum hexokinase (CpHK) (Cryptosporidium parvum, UniProt Q5CWT5). As to the kind of experiment: biochemical. The series is classed as biochemical. The following applies: for Selectivity on enzyme: HsHK1 IC50 versus CpHK IC50; for Mode of inhibition of CpHK: inhibitory kinetics.
For series [2], the target named is T2, human (Homo sapiens) HK-I (HsHK1) (Homo sapiens, UniProt P19367).
T2 sequence (P19367 1-917): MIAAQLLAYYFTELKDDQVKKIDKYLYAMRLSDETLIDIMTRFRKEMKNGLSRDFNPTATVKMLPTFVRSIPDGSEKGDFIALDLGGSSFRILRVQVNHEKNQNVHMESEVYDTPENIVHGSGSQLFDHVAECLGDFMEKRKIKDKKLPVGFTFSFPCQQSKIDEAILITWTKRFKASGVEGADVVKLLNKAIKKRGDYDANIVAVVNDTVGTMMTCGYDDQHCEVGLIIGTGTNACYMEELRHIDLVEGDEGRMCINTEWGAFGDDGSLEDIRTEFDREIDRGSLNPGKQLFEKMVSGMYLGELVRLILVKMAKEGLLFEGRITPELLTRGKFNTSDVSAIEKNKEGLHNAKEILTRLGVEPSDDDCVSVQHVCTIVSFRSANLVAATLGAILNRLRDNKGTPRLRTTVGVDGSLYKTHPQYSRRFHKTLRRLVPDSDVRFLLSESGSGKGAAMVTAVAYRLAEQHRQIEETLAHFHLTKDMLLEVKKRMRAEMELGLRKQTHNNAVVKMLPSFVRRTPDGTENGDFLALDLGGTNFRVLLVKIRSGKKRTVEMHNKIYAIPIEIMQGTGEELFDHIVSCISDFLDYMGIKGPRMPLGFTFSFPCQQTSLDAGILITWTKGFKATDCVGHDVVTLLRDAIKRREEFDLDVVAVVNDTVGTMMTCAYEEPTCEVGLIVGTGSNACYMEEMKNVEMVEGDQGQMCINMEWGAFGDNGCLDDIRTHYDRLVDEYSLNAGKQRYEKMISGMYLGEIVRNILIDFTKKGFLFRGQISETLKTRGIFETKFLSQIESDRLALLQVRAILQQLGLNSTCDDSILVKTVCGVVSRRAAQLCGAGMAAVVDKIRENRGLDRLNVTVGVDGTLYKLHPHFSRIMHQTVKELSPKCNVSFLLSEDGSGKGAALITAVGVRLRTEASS
As to the kind of experiment: HsHK1 inhibition, HK/G6PDH-coupled assay. The series is classed as biochemical.

Series [3] relates to HCT-8 cells. To be noted: host cells; ref Eltahan et al, 2018; cited from earlier work.
Series [4] concerns C. parvum. The following applies: read-out: Efficacy on C. parvum (EC50); in vitro; ref Eltahan et al, 2018; cited from earlier work.
In series [5] the test system is HCT-8 cells. As to the kind of experiment: Cytotoxicity on host cells, MTT assay.
In series [6] the test system is C. parvum. As to the kind of experiment: Efficacy against C. parvum growth in vitro in HCT-8 cells, qRT-PCR assay. To be noted: for Safety Interval (TC50/EC50): HCT-8 TC50 / C. parvum EC50.
For series [7], the target named is T1, C. parvum hexokinase (CpHK). The following applies: ref Yu et al. 2014, cited from earlier work.
In a further series the target is T3, CpHK (Cryptosporidium parvum, UniProt Q5CWT5).
T3 sequence (Q5CWT5 1-518): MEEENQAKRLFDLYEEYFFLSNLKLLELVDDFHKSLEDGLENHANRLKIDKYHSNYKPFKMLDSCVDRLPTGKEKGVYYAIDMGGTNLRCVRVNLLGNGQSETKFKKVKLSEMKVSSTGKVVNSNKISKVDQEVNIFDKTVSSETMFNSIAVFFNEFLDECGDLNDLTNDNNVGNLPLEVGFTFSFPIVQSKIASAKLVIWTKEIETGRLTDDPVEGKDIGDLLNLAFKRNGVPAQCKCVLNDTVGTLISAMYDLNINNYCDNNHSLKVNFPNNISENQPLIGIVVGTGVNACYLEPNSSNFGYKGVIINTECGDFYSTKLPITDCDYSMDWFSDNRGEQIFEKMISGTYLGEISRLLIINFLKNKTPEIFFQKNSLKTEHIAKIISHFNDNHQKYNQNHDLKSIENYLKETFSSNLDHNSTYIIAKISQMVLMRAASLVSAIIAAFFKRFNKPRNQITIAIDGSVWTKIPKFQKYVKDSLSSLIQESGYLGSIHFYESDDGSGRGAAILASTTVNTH
As to the kind of experiment: CpHK enzyme parameters towards substrates. The series is classed as biochemical.

A further series addresses T4, HsHK1 (Homo sapiens, UniProt P19367).
T4 sequence (P19367 1-917): T2 sequence (P19367 1-917)
As to the kind of experiment: HsHK1 enzyme parameters towards substrates. The series is classed as biochemical.

Substrate in series [8]: OC[C@H]1OC(O)[C@H](O)[C@@H](O)[C@@H]1O
As to the kind of experiment: CpHK enzyme parameters towards substrates. The series is classed as biochemical, Cryptosporidium parvum. To be noted: other: compound as substrate; pH 7.5.

Substrate in series [9]: O=CC[C@@H](O)[C@H](O)[C@H](O)CO
As to the kind of experiment: CpHK enzyme parameters towards substrates. The following applies: other: compound as substrate; pH 7.5. The series is classed as biochemical, Cryptosporidium parvum.

Substrate in series [10]: O=CC[C@@H](O)[C@H](O)[C@H](O)CO
As to the kind of experiment: purified protein, by the assay type. To be noted: other: compound as substrate, 37 °C, pH 7.5.

Substrate in series [11]: OC[C@H]1OC(O)[C@H](O)[C@@H](O)[C@@H]1O
As to the kind of experiment: HsHK1 enzyme parameters towards substrates. The series is classed as biochemical, Homo sapiens. The following applies: other: compound as substrate, 37 °C, pH 7.5.

[12] abbreviates: Cryptosporidium parvum, HCT-8, read-out: Efficacy on C. parvum (EC50).
Where [13] appears, read: Cryptosporidium parvum, HCT-8, 44 h, read-out: In vitro efficacy (EC50).

For the molecule `O=c1c2ccccc2[se]n1-c1ccccc1` [Ebselen, 2-phenyl-1,2-benzisoselenazol-3(2H)-one], in [1], the concentration for half-maximal inhibition (IC50) came out at 0.241 µM, the Selectivity on enzyme is reported as 1.10 and the “Mode of inhibition of CpHK” value is “noncompetitive inhibitor”. For the same molecule, the “Reversibility of CpHK inhibition” value in series [1] (not reversed by up to 50-fold dilution, from 100 to 2 μM) is reported as “irreversible inhibitor”. The molecule further had an IC50 in series [2] of 0.265 µM. For the same molecule, the “Cytotoxicity (TC50)” value with HCT-8 cells [3] is on record as 700 ^* μM. The EC50 in the series with C. parvum [4] is 165 µM.

Take `Oc1c(Cl)cc(Cl)c(Cl)c1Cc1c(O)c(Cl)cc(Cl)c1Cl` [Hexachlorophene]: the “Cytotoxicity (TC50)” value in the series with HCT-8 cells [5] (host cells) worked out at 100 µM. In [1], the 50% inhibitory concentration (IC50) was determined as 8.8 µM, the Selectivity on enzyme turned out to be 0.74 and the “Mode of inhibition of CpHK” value is reported as “mixed model of inhibition”. This molecule had an IC50 in [2] of 6.5 µM. The EC50 in the series on C. parvum [6] (setting [12]) is 0.53 µM.

On to `O=CC[C@@H](O)[C@H](O)[C@H](O)CO` [2DG, 2-deoxy-D-glucose], for which the “Cytotoxicity (TC50)” value in the series on HCT-8 cells [5] (44 h treatment) stood at 36000 µM. Also, the IC50 is 5750 µM in [1], 5750 µM in series [7] (read-out: CpHK IC50) and 10100 µM in series [2]. The Ki in series [7] (read-out: CpHK Ki) was 340 µM. For the same molecule, the “Mode of inhibition of CpHK” value in series [7] is recorded as “competitive inhibitor”. In addition, the “Ratio (2DG/glucose) of CpHK Vmax” value at CpHK is listed as 0.72. Also, the “Ratio (2DG/glucose) of CpHK Km” value on CpHK (fold lower affinity than for glucose) worked out at 4.43. For the same molecule, on HsHK1, the “Ratio (2DG/glucose) of HsHK1 Km” value is 9.81. On HsHK1, the “Ratio (2DG/glucose) of HsHK1 Vmax” value is recorded as 1.28. Also, the EC50 in the series with C. parvum [6] (setting [13]) came to 540 µM. In the series with C. parvum [6], the “Safety Interval (TC50/EC50)” value is 66.7.

Regarding `O=CC[C@@H](O)[C@H](O)[C@H](O)COP(=O)(O)O` [2DG6P, 2-deoxy-D-glucose-6-phosphate], the “Cytotoxicity (TC50)” value with HCT-8 cells [5] (44 h treatment) is >72000 µM. Moreover, in the series on C. parvum [6] (setting [13]), the EC50 is 18000 µM. Besides, the “Safety Interval (TC50/EC50)” value with C. parvum [6] was >4.0.

With `OC[C@H]1OC(O)[C@H](F)[C@@H](O)[C@@H]1O` (stereo partly shown) [FDG, fluorodeoxyglucose], the IC50 in series [1] (read-out: Effect on CpHK, IC50) was 3700 µM; in series [2] (read-out: Effect on HsHK1, IC50, 37 °C), 15200 µM. Also, the “Safety Interval (TC50/EC50)” value is reported as > 240 with C. parvum [6] and >240 with C. parvum [6] (listed as 2FDG). In addition, the concentration for a half-maximal effect (EC50) in the series on C. parvum [6] (read-out: In vitro efficacy (EC50), 44 h infection assay) is 300 µM.

With `C[CH2][Hg][S]c1ccccc1C(=O)[O-].[Na+]` [Thimerosal], the “Cytotoxicity (TC50)” value in the series with HCT-8 cells [5] (host cells) was 18.5 µM. For the same molecule, in [1], the “Mode of inhibition of CpHK” value is on record as “mixed model of inhibition”. Moreover, the concentration for half-maximal inhibition (IC50) in series [1] (read-out: Inhibition on CpHK (IC50), 37 °C, 1% DMSO) was 2.3 µM; in series [2] (read-out: Inhibition on HsHK1 (IC50), 37 °C, 1% DMSO), 0.35 µM. For the same molecule, the EC50 in the series with C. parvum [6] (read-out: Efficacy on C. parvum (EC50), in vitro) was 1.77 µM.

In the case of `CCCCC(CC)CNC(=N)NC(=N)NCCCCCCNC(=N)NC(=N)NCC(CC)CCCC` (stereo not shown) [Alexidine•2HCl, alexidine dihydrochloride], the “Cytotoxicity (TC50)” value in the series with HCT-8 cells [5] (host cells) turned out to be 32.6 µM. In series [1], the concentration for half-maximal inhibition (IC50) was 22.1 µM, the Selectivity on enzyme came to 1.03 and the “Mode of inhibition of CpHK” value is reported as “noncompetitive inhibitor”. In addition, half-maximal inhibition in series [2] (IC50) was put at 22.7 µM. Moreover, the 50% effective concentration (EC50) with C. parvum [6] (setting [12]) is 8.1 µM.

B1: CpHK (Cryptosporidium parvum Iowa II) (protein)
chain: T3 sequence (Q5CWT5 1-518)
In the case of B1, the Michaelis-Menten constant (Km) was found to be 46 µM in [8] and 204 µM in [9]. Also, the values for the maximal velocity (Vmax) in series [8] and in series [9] were 155 µmol/min and 112 µmol/min, respectively.

B2: HsHK1 (Homo sapiens) (protein)
chain: T2 sequence (P19367 1-917)
In the case of B2, in series [10], the Km stood at 265 µM and the Vmax is 68.4 µmol/min. Moreover, in [11], the Michaelis-Menten constant (Km) came to 27 µM and the maximal velocity (Vmax) amounted to 53.3 µmol/min.
